In brackets after ≈: the same amount, converted by molar mass.
Columns and labels:
DNA topoisomerase 1 [1] = biological target: T1, DNA topoisomerase 1 (Homo sapiens, UniProt P11387); assay: Inhibition of recombinant human Top1 expressed in baculovirus infected sf9 insect cells using supercoiled pBS (SK+) DNA as substrate incubated for 30 mins by ethidium bromide staining based agarose gel electrophoresis analysis
T1 sequence (P11387 whole entry): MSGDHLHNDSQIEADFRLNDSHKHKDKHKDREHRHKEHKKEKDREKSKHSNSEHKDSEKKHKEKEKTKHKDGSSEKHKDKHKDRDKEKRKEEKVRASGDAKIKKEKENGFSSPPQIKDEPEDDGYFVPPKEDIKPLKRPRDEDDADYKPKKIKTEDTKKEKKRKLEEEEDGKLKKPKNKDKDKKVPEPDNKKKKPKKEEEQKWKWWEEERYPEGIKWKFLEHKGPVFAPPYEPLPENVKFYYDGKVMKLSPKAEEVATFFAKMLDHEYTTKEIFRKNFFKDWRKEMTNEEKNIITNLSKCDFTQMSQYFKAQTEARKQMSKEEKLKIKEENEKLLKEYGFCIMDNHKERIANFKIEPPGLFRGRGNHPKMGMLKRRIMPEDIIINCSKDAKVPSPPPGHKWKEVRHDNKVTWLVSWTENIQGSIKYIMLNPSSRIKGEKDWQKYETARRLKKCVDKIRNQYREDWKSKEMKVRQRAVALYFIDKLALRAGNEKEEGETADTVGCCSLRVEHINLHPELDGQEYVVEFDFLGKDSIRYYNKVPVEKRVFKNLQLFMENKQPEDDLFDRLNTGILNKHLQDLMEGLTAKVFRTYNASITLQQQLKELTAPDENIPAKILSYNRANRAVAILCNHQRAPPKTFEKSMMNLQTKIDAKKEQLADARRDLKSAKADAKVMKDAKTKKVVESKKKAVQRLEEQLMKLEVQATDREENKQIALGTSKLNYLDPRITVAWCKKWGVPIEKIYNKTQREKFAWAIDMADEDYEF

[2] = Aqueous solubility of compound; assay type: physicochemical
[3] = Intrinsic clearance in human liver microsomes after 60 mins in presence of cofactor by LC-MS/MS analysis; assay type: ADME, Microsome; settings: 1 h
[4] = Half life in human liver microsomes by LC-MS/MS analysis; assay type: ADME, Microsome
[5] = Stability in human plasma assessed as parent compound remaining after 2 hrs; assay type: ADME, cell-free; settings: read-out: Stabilty
[6] = Lipophilicity, logD of the compound at pH 7.4; assay type: physicochemical; settings: buffer
[7] = Stability in human liver microsomes assessed as parent compound remaining after 60 mins in presence of cofactor by LC-MS/MS analysis; assay type: ADME, Microsome; settings: read-out: Stabilty
[8] = Stability in human liver microsomes assessed as parent compound remaining after 60 mins by LC-MS/MS analysis; assay type: ADME, Microsome; settings: read-out: Stabilty
HEK293 = assay: Cytotoxicity against HEK293 cells assessed as reduction in cell viability after 48 hr by MTT assay; assay type: cell-based; settings: Homo sapiens, HEK293, 48 h
DNA topoisomerase 1 [9] = biological target: T1, DNA topoisomerase 1; assay: Inhibition of Top1 in human MCF7 cells using supercoiled pBS (SK+) DNA as substrate incubated for 30 mins by ethidium bromide staining based agarose gel electrophoresis analysis; assay type: cell-based
MCF7 = assay: Cytotoxicity against human MCF7 cells assessed as reduction in cell viability after 48 hr by MTT assay; assay type: functional, cell-based; settings: MCF7, 48 h

| IC50 (DNA topoisomerase 1 [1]) | CLH [3] | half-life [4] | remaining at 1 h [7] | remaining at 1 h [8] | Compound | remaining at 2 h [5] | IC50 (HEK293) | further results |
| --- | --- | --- | --- | --- | --- | --- | --- | --- |
| > 10 µM |  |  |  |  | COc1ccc(-c2ccc3ncc(-c4nnco4)c(NCCCn4cccc4)c3c2)cc1 |  |  |  |
|  | 89.3 µL/min/mg | 7.77 min | 93% | 0% | Cc1ccc(-c2ccc3ncc(-c4nnco4)c(NCCCn4ccnc4)c3c2)cc1 | 90.8% |  | solubility [2]: 0.3 µg/mL (≈ 0.731 µM); logD [6]: > 3.5 |
|  | 69.7 µL/min/mg | 9.94 min | 112% | 1.68% | COc1ccc(-c2ccc3ncc(-c4nnco4)c(NCCCn4ccnc4)c3c2)cc1 |  |  |  |
|  |  |  |  |  | CC[C@@]1(O)C(=O)OCc2c1cc1n(c2=O)Cc2cc3ccccc3nc2-1 [CAMPTOTHECIN] |  | 8.75 µM |  |
| > 10 µM |  |  |  |  | COc1ccc(-c2ccc3ncc(-c4nnco4)c(NCCCN4CCCC4)c3c2)cc1 |  |  |  |

| Compound | IC50 (DNA topoisomerase 1 [1]) | CLH [3] | half-life [4] | remaining at 1 h [7] | remaining at 1 h [8] | remaining at 2 h [5] | IC50 (HEK293) | further results |
| --- | --- | --- | --- | --- | --- | --- | --- | --- |
| Nc1ccc(-c2ccc3ncc(-c4nnco4)c(NCCCn4ccnc4)c3c2)cc1 |  | 10 µL/min/mg | 69.1 min | 93.8% | 53.7% | 91.3% | > 10 µM | IC50 (DNA topoisomerase 1 [9]): 2.5 µM; IC50 (MCF7): 2.5 µM |
